What was measured:
[1] = cited from earlier work
[2] = test system: bleomycin-mediated fibrosis in the lungs of rats; settings: cited from earlier work
[3] = oral bioavailability in several animal species; settings: in vivo, read-out: observed oral bioavailability
[4] = predicted human absorption, clearance and bioavailability
Description: Based on in vitro data, the predicted human oral bioavailability is 70%. The observed oral bioavailability in several animal species is in the range 40% to 60%.
Therefore, a conservative estimate is that Cmax following an IV infusion over 20 minutes is less than 2-fold higher compared to an oral dose, after correcting for F.

[5] = test system: β-catenin reporter; settings: β-catenin reporter assay, rodent cells (Bunyard 2019); read-out: in vitro IC50; cited from earlier work
[6] = test system: porcupine (PORCN); settings: statement in words; cited from earlier work
[7] = test system: renal fibrosis in a UUO model in mice; settings: mice (Bunyard 2019); cited from earlier work
[8] = Example 2, second clinical study: pharmacokinetics, bioavailability, food and rabeprazole effect; assay type: in vivo, human; settings: for bioavailability: human, in vivo, po, 20 mg, 20 mg film-coated tablet, fasted, vs IV infusion
Description: The study comprises a screening period of maximum 28 days, and five periods during which subjects will participate from Day −1 of Period 1 to 72 hours after the AZD5055 dose in Period 5.
Period 1: On Day 1, the subjects will receive either 5 mg AZD5055 as a 20-minute IV infusion (Treatment A) in an overnight fasted state or AZD5055 20 mg as oral suspension (Treatment B) in an overnight fasted state.
Period 2: On Day 1 (Study Day 4), the subjects will receive 20 mg AZD5055 film-coated tablet (Treatment C) in an overnight fasted state.
Period 3: On Day 1 (Study Day 8) the subjects will receive a standardized high-fat breakfast 30 minutes before 20 mg AZD5055 administered as film-coated tablet (Treatment D).
Period 4: On Study Day 10, three days prior to Day 1, 20 mg rabeprazole will be administered twice daily. On Day 1 (Study Day 13), 20 mg AZD5055 film-coated tablet will be administered together with rabeprazole and rabeprazole dosing will continue twice daily (Treatment E).
Period 5: On Day 1 (Study Day 17) the participants will receive a low-fat breakfast 30 minutes before 20 mg AZD5055 film-coated tablet administered together with 20 mg rabeprazole.
Rabeprazole will continue twice daily, the last dose is on the evening of Study Day 18 (Treatment F).
There will be a minimum washout of 3 days between the AZD5055 dose administration in Period 1 and Period 2 and a minimum washout of 4 days between AZD5055 doses administrations for subsequent study periods. Repeated PK (pharmacokinetic) sampling will be performed pre-dose to 48 hours after dosing of AZD5055 of each period. Subjects will be discharged on Study Day 20 (Day 4 of Period 5), after all the samples have been collected and all the assessments have been performed.
Rabeprazole is administered as oral doses of 20 mg BID in the morning and evening. Pre-treatment with rabeprazole for 3 days is required to reach the PD (pharmacodynamic) steady state of pH elevation prior to administration of AZD5055.
A high-fat, high-calorie breakfast constitutes the following: 2 eggs fried in butter; 2 strips of bacon; 2 slices of toast with butter; 112 g/4 oz of hash-brown potatoes; 240 mL/8 oz of whole milk.
A low-fat, low-calorie breakfast constitutes the following: 1 boiled egg; 1 packet flavoured instant oatmeal made with water; 240 mL/8 oz milk (1% fat).
Pharmacokinetic Parameters—Pharmacokinetic parameters of AZD5055 included, but were not limited to, Cmax, AUCinf, and AUClast.
Approximately 18 healthy participants were enrolled to ensure that at least 15 participants completed the 5-period study. It was expected that the proposed sample size would give adequate information on the effect of formulation and concomitant treatment on the exposure of AZD5055, while exposing as few participants as possible to study procedures. Interpretation of the results were based on the estimated geometric mean ratio (GMR) and the associated 90% confidence interval (CI) between the combination of test and reference for AUC and Cmax.
Plasma concentrations were listed for each participant at each actual sampling time and summarized by treatment and nominal sampling time, using the same descriptive statistics as for the PK parameters. Graphical presentations included individual and geometric mean time-concentration curves (actual sampling time for individual curves and nominal sampling time for mean curves) on linear and semi-logarithmic scale. Pharmacokinetic variables and diagnostics of the PK analysis were listed, and PK variables were summarized by treatment using descriptive statistics (n, geometric mean, geometric coefficient of variation [gCV; %], arithmetic mean, arithmetic standard deviation [SD], minimum [min], median, and maximum [max]) for all variables except tmax, which were summarized using n, min, median, and max. […]

[9] = 20 mg film-coated tablet vs oral suspension
[10] = tablet + rabeprazole fasted vs AZD5055 fasted alone
[11] = tablet + rabeprazole fed vs AZD5055 fasted alone
[12] = tablet with rabeprazole, fed vs fasted

Cc1cc(-c2nccc3c2ccn3CC(=O)Nc2ccc(-c3cnccn3)cn2)ccn1 [AZD5055, 2-[4-(2-methyl-4-pyridyl)pyrrolo[3,2-c]pyridin-1-yl]-N-(5-pyrazin-2-yl-2-pyridyl)acetamide]
solubility [1]: pH dependent | pulmonary fibrosis ([2]; rat bleomycin in vivo study (Bunyard 2019)): reduced pulmonary fibrosis | bleomycin-mediated fibrosis in the lungs ([2]; rats, preliminary studies (Bunyard 2019)): reduces bleomycin-mediated fibrosis in the lungs of rats | bioavailability [3]: 40 to 60% | Cmax after 20-minute IV infusion relative to oral dose ([4]; conservative estimate, after correcting for F): less than 2 fold | dose absorbed within 20 minutes ([4]; estimated from tmax of 1 hour, oral): approximately 75% | IC50 [5]: 640 pM | inhibition of the intracellular enzyme porcupine (PORCN) [6]: potent, and selective inhibitor | renal fibrosis, UUO model [7]: reduces | reduction in Cmax, tablet vs oral suspension [8, 9]: approximately 35% | total systemic exposure (AUCinf and AUClast), tablet vs oral suspension [8, 9]: comparable | Cmax relative to IV dose ([8]; film-coated tablet, percent of the IV dose): approximately 21% | bioavailability ([8]; read-out: absolute bioavailability based on AUCinf): ~66% | bioavailability ([8]; read-out: absolute bioavailability based on AUClast): ~64% | change in total systemic exposure (AUCinf and AUClast) with rabeprazole, fasted [8, 10]: no change in total systemic exposure | reduction in Cmax with rabeprazole, fasted [8, 10]: 32% | change in total systemic exposure (AUCinf and AUClast) with rabeprazole, fed [8, 11]: no change in total systemic exposure | reduction in Cmax with rabeprazole, fed [8, 11]: 20% | food effect on total systemic exposure with rabeprazole [8, 12]: food did not impact total systemic exposure | increase in Cmax by food with rabeprazole [8, 12]: approximately 17%

Reference: US20260345593A1, “ORAL FORMULATION OF N-PYRIDINYL ACETAMIDE DERIVATIVE FOR TREATING INTERSTITIAL LUNG DISEASE” (AstraZeneca AB, priority 2022, published 2026)
